Numbered stars: 1 amine (or outer) side, 2 acyl side, 3 side chain; on linkers, the order of the positions; unused ones are H or OH. Bridge positions count the residues as written; N and C are the ends. Square brackets hold non-standard residues; d marks the D form. Peptide text beside a SMILES is read from it. Bip = N[C@@H](Cc1ccc(-c2ccccc2)cc1)C(=O)O; Phe(4-NH2) = Nc1ccc(C[C@H](N)C(=O)O)cc1; d(hPhe) = N[C@H](CCc1ccccc1)C(=O)O; Suc = O=C(CCC(=O)[*:2])[*:1]
Legend:
[1] = molecular target: T1, TNFα / TNFα receptor (TNFα R1/Fc) (Homo sapiens, UniProt P01375); experiment: Inhibition of binding of TNFα to the TNFα receptor (plate ELISA competition); details: Table 2; read-out: Activity (IC50, inhibition of TNFα binding to TNFα R1/Fc)
T1 construct: purchased R&D Systems
T1 sequence (P01375 77-233 limits assumed, species assumed): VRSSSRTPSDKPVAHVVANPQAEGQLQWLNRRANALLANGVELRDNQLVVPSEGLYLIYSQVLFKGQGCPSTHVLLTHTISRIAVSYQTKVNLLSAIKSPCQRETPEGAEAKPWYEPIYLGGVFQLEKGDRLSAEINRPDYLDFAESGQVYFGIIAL
Procedure, shortened: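 Plates were coated with TNFα at 15 nM. Test compound and 8.33 nM receptor-Fc (PBST, 2% DMSO) were first mixed in solution for 30 min at room temperature, then transferred to the plates for another 30 min. Competition was read by absorbance at 450 nm after HRP anti-human IgG Fc detection with TMB.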

[2] = tested on: rat paw edema model; experiment: Rat paw edema model (carrageenan), anti-inflammatory activity; assay type: in vivo, Sprague-Dawley (SD) rats; details: Table 10; 3.0 mg/kg PO; 2 h post-carrageenan

O=C1CCC(=O)N[C@H](CCc2ccccc2)C(=O)N[C@@H](Cc2ccc(-c3ccccc3)cc2)C(=O)N[C@H](Cc2ccccc2)C(=O)N[C@H](C(=O)N[C@@H](Cc2ccccc2)C(=O)O)Cc2ccc(cc2)N1 [Compound 202] ([d(hPhe)][Bip][dF][Phe(4-NH2)]F-OH; linker N-4 via Suc)
IC50 [1]: < 10 µM
Change in Paw Volume [2]: 1.25 ± 0.08 mL

Source: patent publication US8338565B2, “Macrocyclic compounds for inhibition of tumor necrosis factor alpha” (Ensemble Therapeutics Corporation, priority 2008, dated 2012)
